This passage reports IC50 results from US20050256176A1, “Sulphonamide derivatives and their use as tace inhibitors” (priority 2002, published 2005).

This test addresses T1, proTNF-α convertase enzyme (TACE) (Homo sapiens, UniProt P78536).
T1 construct: a partially purified, isolated enzyme assay, the enzyme being obtained from the membranes of THP-1; endogenous in cells; host or cells: THP-1 cell membranes, partially purified as in Mohler et al. (1994) Nature 370:218-220
As to the kind of experiment: Isolated enzyme assay, proTNF-α convertase (TACE), fluorescent peptide substrate. As to conditions: partially purified enzyme from membranes of THP-1; 26° C. for 4 hours; read-out: concentration giving 50% inhibition of TACE. The class given is biochemical. The procedure:
Recombinant human proMMP13 may be expressed and purified as described by Knauper et al. [V. Knauper et al., (1996) […] 271:1544-1550 (1996)]. […] Activity is determined by measuring the fluorescence at λex 328 nm and λem 393 nm. Percent inhibition is calculated as follows: % Inhibition is equal to the [Fluorescenceplus inhibitor−Fluorescencebackground] divided by the [Fluorescenceminus inhibitor−Fluorescencebackground].
The ability of the compounds to inhibit proTNF-α convertase enzyme (TACE) may be assessed using a partially purified, isolated enzyme assay, the enzyme being obtained from the membranes of THP-1 as described by K. M. Mohler et al., (1994) Nature 370:218-220. The purified enzyme activity and inhibition thereof is determined by incubating the partially purified enzyme in the presence or absence of test compounds using the substrate 4′,5′-Dimethoxy-fluoresceinyl Ser.Pro.Leu.Ala.Gln.Ala.Val.Arg.Ser.Ser.Ser.Arg.Cys(4-(3-succinimid-1-yl)-fluorescein)-NH2 in assay buffer (50 mM Tris HCl, pH 7.4 containing 0.1% (w/v) Triton X-100 and 2 mM CaCl2), at 26° C. for 4 hours. The amount of inhibition is determined as for MMP13 except λex 485 nm and λem 538 nm were used. […]

T1 sequence (P78536 215-824): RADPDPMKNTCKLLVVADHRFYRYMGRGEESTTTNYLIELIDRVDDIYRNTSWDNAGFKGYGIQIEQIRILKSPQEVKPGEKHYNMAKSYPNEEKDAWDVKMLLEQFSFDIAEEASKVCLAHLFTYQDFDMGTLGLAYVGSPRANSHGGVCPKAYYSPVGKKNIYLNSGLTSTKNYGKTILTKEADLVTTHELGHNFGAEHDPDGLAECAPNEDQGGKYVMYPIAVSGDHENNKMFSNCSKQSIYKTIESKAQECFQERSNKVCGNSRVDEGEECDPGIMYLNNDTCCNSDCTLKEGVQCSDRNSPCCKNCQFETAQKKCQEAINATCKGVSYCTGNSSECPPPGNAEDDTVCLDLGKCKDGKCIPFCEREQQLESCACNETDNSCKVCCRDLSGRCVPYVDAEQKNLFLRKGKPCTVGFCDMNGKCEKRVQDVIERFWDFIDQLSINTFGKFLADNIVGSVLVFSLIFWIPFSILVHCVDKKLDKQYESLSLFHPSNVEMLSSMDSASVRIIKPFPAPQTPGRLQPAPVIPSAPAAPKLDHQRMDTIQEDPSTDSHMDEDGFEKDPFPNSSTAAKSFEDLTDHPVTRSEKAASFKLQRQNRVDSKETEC

With `Cc1cc(COc2ccc(NS(=O)(=O)CC3(C)NC(=O)NC3=O)cc2)c2ccccc2n1` (centres unmarked) [Example 1A, 1-(4-methyl-2,5-dioxoimidazolidin-4-yl)-N-{4-[(2-methylquinolin-4-yl)methoxy]phenyl}methanesulphonamide], the IC50 was 71 nM.
On to `CCC1(CS(=O)(=O)Nc2ccc(OCc3cc(C)nc4ccccc34)cc2)NC(=O)NC1=O` (centres unmarked) [Example 2A, 1-(4-ethyl-2,5-dioxoimidazolidin-4-yl)-N-{4-[(2-methylquinolin-4-yl)methoxy]phenyl}methanesulphonamide], for which the IC50 was 37 nM.
